What all share (experiment): NCI-60 cell line screen, 48 h
Assay [1] deals with ACHN.
Assay [2] relates to HCT-116.
In assay [3] the test system is HOP-62.
For assay [4], the system named is HOP-92.
The test system of assay [5] is LOX IMVI.
In assay [6] the test system is MOLT-4.
Assay [7] has as its system NCI-H23.
Assay [8] relates to RXF 393.
The test system of assay [9] is SN12C.
The test system of assay [10] is SW-620.
Assay [11] concerns TK-10.
Assay [12] has as its system UACC-257.
For assay [13], the system named is UO-31.
Assay [14] concerns MCF7.
Assay [15] relates to Malme-3M.
The test system of assay [16] is OVCAR-3.
Assay [17] has as its system RPMI-8226.
Assay [18] concerns PC-3.
Assay [19] deals with Hs-578T.

The text below walks through data of ChEMBL document CHEMBL1201862, “PubChem BioAssay data set” (2004).

Structures can show the parent of a compound that is named as a salt.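 Test compounds were applied to cells in 96-well plates for 48 hours at 5 doses. GI50 is the concentration that inhibits growth by half.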 Calls of active or inactive are those of the source. Cut-off read from the data, not from the text of the source: active = GI50 up to about 1.1 µM and inactive = higher.

`C/N=C(\SC)N(C)c1nc(=[N+](C)C)ss1.[O-][Cl+3]([O-])([O-])[O-]`: the GI50 is > 100 µM (inactive) in [1]; > 100 µM (inactive) in [2]; > 100 µM (inactive) in [3]; > 100 µM (inactive) in assay [4]; > 100 µM (inactive) in [5]; 9.53 µM (inactive) in [6]. Besides, the GI50 in assay [7] is > 100 µM (inactive); in [8], > 100 µM (inactive); in assay [9], > 100 µM (inactive); in [10], 31.6 µM (inactive); in [11], > 100 µM (inactive); in assay [12], > 100 µM (inactive). Also, in assay [13], the GI50 was 42.2 µM (inactive).

Consider `CN1CCN(c2cc3c(cc2F)c(=O)c(C(=O)O)cn3C2CC2)CC1CC#N` (stereo not drawn), for which the GI50 in [1], in assay [2], in [3], in [5], in assay [14] and in assay [6] was > 100 µM (inactive) each time. Besides, the GI50 in [15], in assay [7], in assay [16], in [17], in [8] and in assay [9] was > 100 µM (inactive) in each case. Also, the GI50 in assay [10], in assay [11], in assay [12] and in [13] was > 100 µM (inactive) each time.

On to `CCN(CC)CCC(=O)NC1c2ccc(Cl)cc2Oc2c(C)cccc21` (stereo not drawn), for which the GI50 in assay [2] was 16.3 µM (inactive); in assay [3], > 10 µM (inactive); in [4], 25.8 µM (inactive); in assay [5], 14.5 µM (inactive); in assay [14], 15.7 µM (inactive); in [6], 18.6 µM (inactive). The GI50 in assay [7] is 17.4 µM (inactive); in assay [16], 15.5 µM (inactive); in [18] it was 13.2 µM (inactive); in assay [17], 24.9 µM (inactive); in assay [9], 17.3 µM (inactive); in assay [10], 16.7 µM (inactive). Further, the values for the GI50 in assay [11], in assay [12] and in [13] were 14.6 µM (inactive), 17.1 µM (inactive) and 8.89 µM (inactive), respectively.

For `Cc1cc(C)c(N[S+]([O-])c2cccc(C(F)(F)F)c2)c(C)c1` (stereo not drawn), the GI50 in assay [1], in assay [3], in assay [4], in assay [14], in assay [6] and in [15] was > 100 µM (inactive) throughout. Moreover, the GI50 in assay [7], in [16], in assay [18], in assay [17], in assay [8] and in assay [9] was > 100 µM (inactive) throughout. For the same compound, the GI50 in assay [10], in assay [11], in assay [12] and in [13] was > 100 µM (inactive) in each case.

`CCOc1c(Cc2ccccc2)c(=O)n2c3ccccc3n3c(=O)n(C)c(=O)c1c23`: the GI50 in assay [1], in assay [2], in assay [3], in assay [4], in assay [5] and in assay [6] was > 100 µM (inactive) in each case. In addition, the GI50 in assay [15], in assay [7], in assay [16], in assay [17], in assay [8] and in [9] was > 100 µM (inactive) each time. For the same compound, the GI50 in [10], in assay [11], in [12] and in assay [13] was > 100 µM (inactive) each time.

Take `CO/C(=N\N=C\c1cccc(Cl)c1)c1ccncc1`: the GI50 in [1], in assay [2], in [3], in assay [4], in assay [5] and in assay [14] was > 10 µM (inactive) throughout. The GI50 in assay [6], in assay [15], in assay [7], in [16], in assay [18] and in assay [17] was > 10 µM (inactive) each time. For the same compound, the GI50 in [8], in assay [9], in [10], in assay [11], in assay [12] and in assay [13] was > 10 µM (inactive) each time.

As to `C#CCOCC12C=CC(O1)C1C(=O)N(C)C(=O)C12` (stereo not drawn), the GI50 in [1], in assay [2], in [3], in assay [5], in [14] and in [6] was > 100 µM (inactive) throughout. Besides, the GI50 in [15], in assay [7], in assay [16], in assay [18], in assay [17] and in assay [8] was > 100 µM (inactive) throughout. For the same compound, the GI50 in assay [9], in [10], in assay [11] and in assay [13] was > 100 µM (inactive) throughout.

For the compound `CN1CCN(C(=S)N(C(=O)c2cccs2)c2ccccc2)CC1`, the GI50 in assay [1], in assay [4], in assay [19], in assay [5], in assay [14] and in assay [6] was > 100 µM (inactive) each time. Also, the GI50 in assay [15], in [7], in assay [16], in [17], in assay [8] and in assay [9] was > 100 µM (inactive) each time. In addition, the GI50 in assay [10], in [11], in assay [12] and in assay [13] was > 100 µM (inactive) in each case.

With `CCOC(=O)[C@@H]1ON2O[C@@H](OC3CCCCC3c3ccccc3)C[C@H]3OC(=O)[C@@H]1C32` (stereo partly drawn), the GI50 in assay [1], in assay [2], in assay [3], in assay [4], in [19] and in [5] was > 100 µM (inactive) in each case. Moreover, the GI50 in assay [14] was > 100 µM (inactive); in [6], > 100 µM (inactive); in assay [7] it was 53.6 µM (inactive); in [16], > 100 µM (inactive); in assay [17] it was > 100 µM (inactive); in assay [8], > 100 µM (inactive). Besides, the GI50 in assay [9], in assay [10], in [11], in assay [12] and in [13] was > 100 µM (inactive) throughout.

For the compound `CC1C(=O)N(C)C2(CO)C(=O)O[C@H](C)C12O` (stereo partly drawn), the GI50 in assay [2] was > 100 µM (inactive); in assay [3], > 100 µM (inactive); in assay [4] it was < 0.01 µM (active); in [6], > 100 µM (inactive); in assay [15], > 100 µM (inactive); in assay [7] it was > 100 µM (inactive). The GI50 in assay [16], in assay [17], in assay [8], in [11] and in assay [13] was > 100 µM (inactive) throughout.

Take `COc1cc(OC)cc(-c2cc(=O)c3c(OC)c(OC)c(OC)c(OC)c3o2)c1`: the GI50 in [1] is 27.2 µM (inactive); in assay [2], 31.3 µM (inactive); in [3], 32.6 µM (inactive); in assay [4] it was 16.7 µM (inactive); in [19], 29.3 µM (inactive); in assay [5], 35.5 µM (inactive). In addition, the GI50 is 63.7 µM (inactive) in assay [14]; 18.3 µM (inactive) in assay [6]; 31.6 µM (inactive) in assay [15]; 52.1 µM (inactive) in assay [7]; 18.8 µM (inactive) in assay [16]; 16.9 µM (inactive) in assay [17]. Further, the GI50 in [8] is 18.2 µM (inactive); in assay [9], 26.4 µM (inactive); in assay [10], 35.7 µM (inactive); in assay [11], 70.6 µM (inactive); in assay [12], 39.2 µM (inactive); in assay [13], 10.8 µM (inactive).

Regarding `CN(C)CCOC(=O)COc1ccc(Cl)cc1` [CENTROPHENOXINE HYDROCHLORIDE], the GI50 in assay [1] is > 100 µM (inactive); in assay [2], > 100 µM (inactive); in assay [3], > 100 µM (inactive); in assay [4] it was > 100 µM (inactive); in assay [5] it was > 100 µM (inactive); in assay [14] it was 38.8 µM (inactive). Also, the GI50 in assay [6], in [15], in [7], in assay [16], in assay [18] and in assay [8] was > 100 µM (inactive) throughout. The GI50 in [9], in [10], in assay [12] and in assay [13] was > 100 µM (inactive) in each case.
